Data as given in the supplement of paper PMC9938120.

How the values were obtained:
Assay in all cases: drug sensitivity score (DSS3, normalised partial AUC of % inhibition dose-response) (DSS (score)); higher = more sensitive (stronger inhibition of viability); extreme values may be limits of the assay
FMOC06 = patient-derived mucinous ovarian cancer cells; conditions: 72 h; library: FO5A; assay format: 2D, 384-well, CellTiter-Glo
Summary of the method: (§1)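 Early-passage (under 10) patient-derived ovarian cancer cells were dispensed onto 384-well flat clear-bottom plates pre-plated with compounds at five concentrations spanning a 10,000-fold range, then incubated 72 h at 37 °C, 5% CO2. Viability was read with CellTiter-Glo, and the data were processed in Breeze. The drug sensitivity score is a partial area under the percent-inhibition dose-response curve divided by the log of the upper asymptote, with higher values meaning greater sensitivity.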

FMOC28 = patient-derived low-grade serous ovarian cancer cells; conditions: 72 h; library: FO5A; assay format: 2D, 384-well, CellTiter-Glo
Summary of the method: as §1

FMOC09 = patient-derived high-grade serous ovarian cancer cells; conditions: 72 h; library: FO5A; assay format: 2D, 384-well, CellTiter-Glo
Summary of the method: as §1

FMOC27 = patient-derived low-grade serous ovarian cancer cells; conditions: 72 h; library: FO5A; assay format: 2D, 384-well, CellTiter-Glo
Summary of the method: as §1

FMOC04 = patient-derived high-grade serous ovarian cancer cells; conditions: 72 h; library: FO5A; assay format: 2D, 384-well, CellTiter-Glo
Summary of the method: as §1

FMOC24 = patient-derived high-grade serous ovarian cancer cells; conditions: 72 h; library: FO5A; assay format: 2D, 384-well, CellTiter-Glo
Summary of the method: as §1

FMOC25_2 = patient-derived low-grade serous ovarian cancer cells; conditions: 72 h; library: FO5A; assay format: 2D, 384-well, CellTiter-Glo
Summary of the method: as §1

FMOC14 = patient-derived high-grade serous ovarian cancer cells; conditions: 72 h; library: FO5A; assay format: 2D, 384-well, CellTiter-Glo
Summary of the method: as §1

FMOC22 = patient-derived mucinous ovarian cancer cells; conditions: 72 h; library: FO5A; assay format: 2D, 384-well, CellTiter-Glo
Summary of the method: as §1

FMOC02_2 = patient-derived low-grade serous ovarian cancer cells; conditions: 72 h; library: FO5A; assay format: 2D, 384-well, CellTiter-Glo
Summary of the method: as §1

FMOC17 = patient-derived low-grade serous ovarian cancer cells; conditions: 72 h; library: FO5A; assay format: 2D, 384-well, CellTiter-Glo
Summary of the method: as §1

FMOC25_1 = patient-derived low-grade serous ovarian cancer cells; conditions: 72 h; library: FO4B; assay format: 2D, 384-well, CellTiter-Glo
Summary of the method: as §1

FMOC11 = patient-derived high-grade serous ovarian cancer cells; conditions: 72 h; library: FO5A; assay format: 2D, 384-well, CellTiter-Glo
Summary of the method: as §1

FMOC03 = patient-derived mucinous ovarian cancer cells; conditions: 72 h; library: FO5A; assay format: 2D, 384-well, CellTiter-Glo
Summary of the method: as §1

FMOC02_1 = patient-derived low-grade serous ovarian cancer cells; conditions: 72 h; library: FO5A; assay format: 2D, 384-well, CellTiter-Glo
Summary of the method: as §1

FMOC02_3 = patient-derived low-grade serous ovarian cancer cells; conditions: 72 h; library: FO5A; assay format: 2D, 384-well, CellTiter-Glo
Summary of the method: as §1

C[C@]12C=CC(=O)C=C1CC[C@@H]1[C@@H]2[C@@H](O)C[C@@]2(C)[C@H]1CC[C@]2(O)C(=O)CO [Prednisolone]
drug sensitivity score (FMOC06): 0.7 | drug sensitivity score (FMOC28): 0 | drug sensitivity score (FMOC09): 0 | drug sensitivity score (FMOC27): 0 | drug sensitivity score (FMOC04): 0 | drug sensitivity score (FMOC24): 0.65 | drug sensitivity score (FMOC25_2): 0 | drug sensitivity score (FMOC14): 0 | drug sensitivity score (FMOC22): 0 | drug sensitivity score (FMOC02_2): 0 | drug sensitivity score (FMOC17): 0 | drug sensitivity score (FMOC25_1): 0 | drug sensitivity score (FMOC11): 0 | drug sensitivity score (FMOC03): 0 | drug sensitivity score (FMOC02_1): 0.1 | drug sensitivity score (FMOC02_3): 0

CC(C)(C)c1cc(NC(=O)Nc2ccc(-c3cn4c(n3)sc3cc(OCCN5CCOCC5)ccc34)cc2)no1 [Quizartinib]
drug sensitivity score (FMOC06): 0.3 | drug sensitivity score (FMOC28): 0.3 | drug sensitivity score (FMOC09): 0 | drug sensitivity score (FMOC27): 0.5 | drug sensitivity score (FMOC04): 0.45 | drug sensitivity score (FMOC24): 3.85 | drug sensitivity score (FMOC25_2): 0.6 | drug sensitivity score (FMOC14): 0 | drug sensitivity score (FMOC22): 0 | drug sensitivity score (FMOC02_2): 0.7 | drug sensitivity score (FMOC17): 1 | drug sensitivity score (FMOC25_1): 0.7 | drug sensitivity score (FMOC11): 0 | drug sensitivity score (FMOC03): 0.8 | drug sensitivity score (FMOC02_1): 2 | drug sensitivity score (FMOC02_3): 0.6

Nc1cc(F)ccc1NC(=O)/C=C/c1cnn(C/C=C/c2ccccc2)c1 [RGFP966]
drug sensitivity score (FMOC06): 2 | drug sensitivity score (FMOC28): 4.6 | drug sensitivity score (FMOC09): 0 | drug sensitivity score (FMOC27): 0.6 | drug sensitivity score (FMOC04): 0.6 | drug sensitivity score (FMOC24): 2.9 | drug sensitivity score (FMOC25_2): 2.5 | drug sensitivity score (FMOC14): 1.9 | drug sensitivity score (FMOC22): 1.4 | drug sensitivity score (FMOC02_2): 2.9 | drug sensitivity score (FMOC17): 0.9 | drug sensitivity score (FMOC25_1): 0 | drug sensitivity score (FMOC11): 3.2 | drug sensitivity score (FMOC03): 2.9 | drug sensitivity score (FMOC02_1): 3.1 | drug sensitivity score (FMOC02_3): 3.5

Cc1cnc(NC(=O)Nc2cc(Br)c(C)cc2OC[C@@H]2CNCCO2)cn1 [Rabusertib]
drug sensitivity score (FMOC06): 0.2 | drug sensitivity score (FMOC28): 0 | drug sensitivity score (FMOC09): 0 | drug sensitivity score (FMOC27): 0 | drug sensitivity score (FMOC04): 1.7 | drug sensitivity score (FMOC24): 3.6 | drug sensitivity score (FMOC25_2): 2 | drug sensitivity score (FMOC14): 3.8 | drug sensitivity score (FMOC22): 0 | drug sensitivity score (FMOC02_2): 0 | drug sensitivity score (FMOC17): 1.1 | drug sensitivity score (FMOC25_1): 1 | drug sensitivity score (FMOC11): 2 | drug sensitivity score (FMOC03): 0 | drug sensitivity score (FMOC02_1): 2.2 | drug sensitivity score (FMOC02_3): 0.8

CC(C)(C)Cn1c(N)nc2ccc(-c3[nH]c(C(C)(C)C)nc3-c3ccc(F)cc3)nc21 [Ralimetinib]
drug sensitivity score (FMOC06): 3.1 | drug sensitivity score (FMOC28): 1.1 | drug sensitivity score (FMOC09): 1.9 | drug sensitivity score (FMOC27): 3.2 | drug sensitivity score (FMOC04): 1.05 | drug sensitivity score (FMOC24): 1.95 | drug sensitivity score (FMOC25_2): 3.4 | drug sensitivity score (FMOC14): 2.2 | drug sensitivity score (FMOC22): 0.4 | drug sensitivity score (FMOC02_2): 4.3 | drug sensitivity score (FMOC17): 4.4 | drug sensitivity score (FMOC25_1): 1.1 | drug sensitivity score (FMOC11): 6.5 | drug sensitivity score (FMOC03): 2.7 | drug sensitivity score (FMOC02_1): 6.6 | drug sensitivity score (FMOC02_3): 3.4

O=C(c1ccc(OCCN2CCCCC2)cc1)c1c(-c2ccc(O)cc2)sc2cc(O)ccc12 [Raloxifene]
drug sensitivity score (FMOC06): 4.5 | drug sensitivity score (FMOC28): 0 | drug sensitivity score (FMOC09): 0.7 | drug sensitivity score (FMOC27): 0.2 | drug sensitivity score (FMOC04): 1.95 | drug sensitivity score (FMOC24): 8.45 | drug sensitivity score (FMOC25_2): 3.7 | drug sensitivity score (FMOC14): 2.6 | drug sensitivity score (FMOC22): 1.2 | drug sensitivity score (FMOC02_2): 5.8 | drug sensitivity score (FMOC17): 1.8 | drug sensitivity score (FMOC25_1): 1.7 | drug sensitivity score (FMOC11): 2.9 | drug sensitivity score (FMOC03): 0.7 | drug sensitivity score (FMOC02_1): 5.5 | drug sensitivity score (FMOC02_3): 4.5

CNC(=O)c1cc(Oc2ccc(NC(=O)Nc3ccc(Cl)c(C(F)(F)F)c3)c(F)c2)ccn1 [Regorafenib]
drug sensitivity score (FMOC06): 2.3 | drug sensitivity score (FMOC28): 2.9 | drug sensitivity score (FMOC09): 1.3 | drug sensitivity score (FMOC27): 0.8 | drug sensitivity score (FMOC04): 0 | drug sensitivity score (FMOC24): 1.9 | drug sensitivity score (FMOC25_2): 0.3 | drug sensitivity score (FMOC14): 2.6 | drug sensitivity score (FMOC22): 4 | drug sensitivity score (FMOC02_2): 2 | drug sensitivity score (FMOC17): 1.9 | drug sensitivity score (FMOC25_1): 0.3 | drug sensitivity score (FMOC11): 2.6 | drug sensitivity score (FMOC03): 3.7 | drug sensitivity score (FMOC02_1): 5.2 | drug sensitivity score (FMOC02_3): 2.6

CN(C)C(=O)c1cc2cnc(Nc3ccc(N4CCNCC4)cn3)nc2n1C1CCCC1 [Ribociclib]
drug sensitivity score (FMOC06): 0.6 | drug sensitivity score (FMOC28): 1.7 | drug sensitivity score (FMOC09): 0 | drug sensitivity score (FMOC27): 0.6 | drug sensitivity score (FMOC04): 0.05 | drug sensitivity score (FMOC24): 1.8 | drug sensitivity score (FMOC25_2): 0.8 | drug sensitivity score (FMOC14): 0 | drug sensitivity score (FMOC22): 0 | drug sensitivity score (FMOC02_2): 1.8 | drug sensitivity score (FMOC17): 0.3 | drug sensitivity score (FMOC25_1): 0 | drug sensitivity score (FMOC11): 0 | drug sensitivity score (FMOC03): 0.5 | drug sensitivity score (FMOC02_1): 3.1 | drug sensitivity score (FMOC02_3): 4.4

O=C(CCCCCCNC(=O)c1cnc(N(c2ccccc2)c2ccccc2)nc1)NO [Rocilinostat]
drug sensitivity score (FMOC06): 3.5 | drug sensitivity score (FMOC28): 0.9 | drug sensitivity score (FMOC09): 0.8 | drug sensitivity score (FMOC27): 4.8 | drug sensitivity score (FMOC04): 3.2 | drug sensitivity score (FMOC24): 5.4 | drug sensitivity score (FMOC25_2): 6.7 | drug sensitivity score (FMOC14): 4.5 | drug sensitivity score (FMOC22): 4.3 | drug sensitivity score (FMOC02_2): 3 | drug sensitivity score (FMOC17): 0.7 | drug sensitivity score (FMOC25_1): 2.4 | drug sensitivity score (FMOC11): 4.3 | drug sensitivity score (FMOC03): 5.1 | drug sensitivity score (FMOC02_1): 4.9 | drug sensitivity score (FMOC02_3): 5.2

CNCc1ccc(-c2[nH]c3cc(F)cc4c3c2CCNC4=O)cc1 [Rucaparib]
drug sensitivity score (FMOC06): 0 | drug sensitivity score (FMOC28): 1.9 | drug sensitivity score (FMOC09): 0 | drug sensitivity score (FMOC27): 1.7 | drug sensitivity score (FMOC04): 0 | drug sensitivity score (FMOC24): 12.9 | drug sensitivity score (FMOC25_2): 2.4 | drug sensitivity score (FMOC14): 0.3 | drug sensitivity score (FMOC22): 0 | drug sensitivity score (FMOC02_2): 2.1 | drug sensitivity score (FMOC17): 3.6 | drug sensitivity score (FMOC25_1): 0.5 | drug sensitivity score (FMOC11): 0 | drug sensitivity score (FMOC03): 0 | drug sensitivity score (FMOC02_1): 2.1 | drug sensitivity score (FMOC02_3): 3.1

N#CC[C@H](C1CCCC1)n1cc(-c2ncnc3[nH]ccc23)cn1 [Ruxolitinib]
drug sensitivity score (FMOC06): 0 | drug sensitivity score (FMOC28): 0 | drug sensitivity score (FMOC09): 0 | drug sensitivity score (FMOC27): 0 | drug sensitivity score (FMOC04): 0 | drug sensitivity score (FMOC24): 1.6 | drug sensitivity score (FMOC25_2): 0 | drug sensitivity score (FMOC14): 0 | drug sensitivity score (FMOC22): 0 | drug sensitivity score (FMOC02_2): 0.3 | drug sensitivity score (FMOC17): 0 | drug sensitivity score (FMOC25_1): 0 | drug sensitivity score (FMOC11): 0 | drug sensitivity score (FMOC03): 0 | drug sensitivity score (FMOC02_1): 0.5 | drug sensitivity score (FMOC02_3): 0
